Values after ≈ are worked out from the molar mass of the structure shown. Active and inactive are the calls of the source.

We go through eleven compounds from ChEMBL document CHEMBL1136232, “Novel inhibitors of an emerging target in Mycobacterium tuberculosis; substituted thiazolidinones as inhibitors of dTDP-rhamnose synthesis” (2003).

For experiment [1], the system named is Mycobacterium tuberculosis. Description: Percentage inhibition against Mycobacterium tuberculosis at a concentration of 20 uM. The format is functional.
For experiment [2], the system named is Mycobacterium tuberculosis. Nature of the experiment: Inhibitory activity against Mycobacterium tuberculosis H37Ra. The class given is functional.
Experiment [3] deals with Mycolicibacterium smegmatis. Description: Percentage inhibition against Rm1BCD at 20 uM.
In experiment [4] the test system is Mycolicibacterium smegmatis. Description: Percentage inhibition against Rm1C at 20 uM.
The subject of experiment [5] is Mycolicibacterium smegmatis. Nature of the experiment: Percentage inhibition against Rm1D at 20 uM; NA is not active.
The test system of experiment [6] is Mycolicibacterium smegmatis. Description: Percentage inhibition against Rm1C at 20 uM; NA is not active.
Experiment [7] concerns Mycolicibacterium smegmatis. Description: Percentage inhibition against Rm1D at 20 uM.

In the case of `CCOC(=O)C(C(C)C)N1C(=O)C(C)SC1c1cccc(OC)c1O` (stereo unspecified), in experiment [1], the inhibition (in general, the change of the read-out against control, counted positive when it falls) at 20 µM amounted to 60%. For the same compound, it took 25 µg/mL (≈ 68 µM) to inhibit growth in experiment [2] (MIC).

Take `CCOC(=O)C(C)N1C(=O)CSC1c1cccc(Oc2ccccc2)c1` (stereo unspecified): the inhibition at 20 µM in experiment [1] amounted to 51%. Moreover, in experiment [2], the MIC – broadly, the smallest concentration in the dilution series that meets the test's criterion for growth inhibition – was determined as 50 µg/mL (≈ 135 µM).

For `COC(=O)C(CCSC)N1C(=O)CSC1c1ccc(N(C)C)cc1` (stereo unspecified), the inhibition at 20 µM in experiment [1] amounted to 100%. Moreover, the MIC in experiment [2] is greater than 200 µg/mL.

In the case of `CCn1c2ccccc2c2ccc(C3SCC(=O)N3C(Cc3c[nH]c4ccccc34)C(=O)OC)cc21` (stereo unspecified), in experiment [2], the MIC was greater than 200 µg/mL. Moreover, the inhibition in experiment [3] came out at 45%; in experiment [4], 48%. Also, in experiment [5], the inhibition result is “inactive”.

As for `CCOC(=O)C(C(C)C)N1C(=O)C(C)SC1c1ccc(-c2ccccc2)cc1` (stereo unspecified), in experiment [1], the inhibition at 20 µM stood at 52.5%. Also, inhibition of growth in experiment [2] (MIC) required 50 µg/mL (≈ 126 µM).

In the case of `CC[C@H](C)C(C(=O)OC)N1C(=O)CSC1c1ccc(N(C)C)cc1` (stereo partly specified), the inhibition at 20 µM in experiment [1] was found to be 110%. Moreover, the minimal inhibitory concentration (MIC) in experiment [2] is greater than 200 µg/mL.

As for `CCOC(=O)C(C(C)C)N1C(=O)C(C)SC1c1ccc2c(c1)c1ccccc1n2CC` (stereo unspecified), in experiment [1], the inhibition at 20 µM amounted to 52%. Besides, the MIC in experiment [2] turned out to be 25 µg/mL (≈ 57 µM).

Consider `O=C(O)C(Cc1cc2ccccc2[nH]1)N1C(=O)CSC1c1ccc(-c2ccccc2)cc1` (stereo unspecified), for which the inhibition at 20 µM in experiment [1] worked out at 66.5%. The compound also yielded an MIC in experiment [2] of 50 µg/mL (≈ 113 µM).

For `CCOC(=O)CCC(C(=O)OCC)N1C(=O)CSC1c1cccc(Oc2ccccc2)c1` (stereo unspecified), the inhibition at 20 µM in experiment [1] worked out at 64%. Besides, the MIC in experiment [2] turned out to be 50 µg/mL (≈ 109 µM).

`COc1cc(C2SC(C)C(=O)N2C(Cc2ccc([N+](=O)[O-])cc2)C(=O)O)cc(OC)c1O` (stereo unspecified): the lowest concentration to inhibit growth in experiment [2] (MIC) was 25 µg/mL (≈ 54.1 µM). Also, the values for the inhibition in experiment [3] and in experiment [7] were 42% and 71%, respectively. In experiment [6], the inhibition entry is “inactive”.

Consider `CCn1c2ccccc2c2cc(C3SC(C)C(=O)N3C(Cc3c[nH]c4ccccc34)C(=O)O)ccc21` (stereo unspecified), for which the inhibition at 20 µM in experiment [1] was found to be 70.5%. For the same compound, the MIC in experiment [2] is 50 µg/mL (≈ 100 µM).
